Article PMC10892375, “Determination of the Cannabinoid CB1 Receptor’s Positive Allosteric Modulator Binding Site through Mutagenesis Studies” (Pharmaceuticals, 2024)

Key:
Format in all cases: cell-based
[1] = molecular target: T1, hCB1 mutant Y172A^2.59 (Homo sapiens, UniProt P21554, Y172A); experiment: pIRES G protein dissociation BRET assay, Y172A mutant; conditions: 10 μM ligand alone
T1 construct: expressed in transfected cells; host or cells: HEK293
Protocol: (§1) Mutagenesis studies using the pIRES G protein dissociation assay were performed using human embryonic kidney 293 (HEK293) wild-type cells transiently transfected with pplss-3HA-hCB1 [31] or modified receptor. All cells were cultured in Dulbecco’s Modified Eagle’s Medium (DMEM) supplemented with 10% fetal bovine serum (FBS), grown in […] vented-cap flasks, and maintained in a 37° C incubator at 5% CO2.
(§2) Mutants of pplss-3HA-hCB1 (WT, pEF-V4-HisA (pEF4a) construct) were generated using a modified QuikChange® (Stratagene, San Diego, CA, USA) site-directed mutagenesis approach using KAPA HiFi Hotstart Polymerase (KAPA Biosystems, Roche, Basel, Switzerland). Briefly, single-stranded primers used to modify one or two base pairs within the target amino acid using PCR were purchased from Integrated DNA Technologies (IDT, Coralville, IA, USA). All pplss-hCB1 mutants were generated using the pplss-3HA-hCB1 pEF4a as parental DNA. PCR products were generated using recommended cycling conditions and treated with Dpn1 (New England Biolabs, Ipswich, MA, USA) overnight at 37° C to digest methylated parental DNA. PCR products were electrophoresed and run on an agarose gel (1% (w.v^−1) agarose, HydraGene, Piscataway, NJ, USA) containing 0.25 μg/mL ethidium bromide (Sigma-Aldrich, St. Louis, MO, USA). Gels were run in 40 mM TRIS-acetate buffer containing […] (pH 8.3) at 100 V for 30 min, maximum current and included a 1kb+ DNA ladder (Invitrogen, Thermo Fisher Scientific, Carlsbad, CA, USA) for reference. Gels were imaged using an UVTech Alliance Q9 Mini transilluminator (UVTech Alliance, Cambridge, UK). Digested products were then used to transform NEB 5α competent E. coli cells in accordance with manufacturer’s instructions. Briefly, transformed PCR products were grown overnight on 8.5 mL Luria Broth agar plates (containing 100 μg/mL ampicillin) at 37° C. Single bacterial colonies were picked and inoculated in Luria Broth (containing 100 μg/mL ampicillin) and grown overnight in a shaking incubator at 37° C. Plasmids were then harvested and purified using a Qiagen miniprep kit (Qiagen, Hilden, Germany) and validated using sequencing (Genetics Analysis Service, University of Otago, Dunedin, New Zealand).
(§3) Dissociation of the G protein heterotrimer, specifically Gαi1, Gβ1, and Gγ2, was investigated using a bioluminescence resonance energy transfer (BRET) assay with the pIRES biosensor first described by and adapted by.
(§4) Briefly, 3 × 10^6 WT HEK293 cells were seeded into 10 cm culture dishes (Corning, Corning, NY, USA; one dish for the control receptor and one for each modified receptor) and incubated at 37 °C for 24 h to gain 50–60% confluency. Culture medium was then replaced and transfection mixtures containing 3 μg pIRES vector and 1 μg receptor (either pplss-hCB1 or modified receptor) were prepared (4 μg total DNA). Plasmids were initially diluted in sterile Milli-Q water before being diluted in OptiMEM reduced serum medium (Thermo Fisher Scientific, Waltham, MA, USA) and combined with […] polyethylenimine (PEI)-max (1:9 DNA:PEI-max ratio) and incubated at room temperature for 20 min. Transfection mixtures were then added to cells via dropwise addition, and cells were incubated at 37 °C for 24 h. Transfected cells were lifted and plated at 50,000 cells/well into poly-d-lysine (PDL; Sigma-Aldrich) coated white 96-well CulturPlates (PerkinElmer, Waltham, MA, USA) and incubated for a further 24 h at 37 °C.
(§5) To assay, the culture medium was aspirated and cells were washed with phosphate buffered saline (PBS) and replaced with BRET assay medium (phenol red free DMEM containing 25 mM HEPES and supplemented with 1 mg/mL bovine serum albumin; BSA, MP Biomedicals, Auckland, New Zealand) for 30 min prior to drug addition (serum starve). Drugs were prepared at 10 × concentration in BRET assay medium, combined in a polypropylene V-bottom plate, and incubated at 37° C prior to drug stimulation.

[2] = molecular target: T2, hCB1 mutant S173A^2.60 (Homo sapiens, UniProt P21554, S173A); experiment: pIRES G protein dissociation BRET assay, S173A mutant; conditions: 10 μM ligand alone
T2 construct: expressed in transfected cells; host or cells: HEK293
Protocol: as §1, §2, §3, §4, §5

[3] = molecular target: T3, hCB1 mutant F191A^3.27 (Homo sapiens, UniProt P21554, F191A); experiment: pIRES G protein dissociation BRET assay, F191A mutant
T3 construct: expressed in transfected cells; host or cells: HEK293
Protocol: as §1, §2, §3, §4, §5

[4] = molecular target: T4, hCB1 mutant I245A^4.54 (Homo sapiens, UniProt P21554, I245A); experiment: pIRES G protein dissociation BRET assay, I245A mutant; conditions: 10 μM ligand alone
T4 construct: expressed in transfected cells; host or cells: HEK293
Protocol: as §1, §2, §3, §4, §5

[5] = molecular target: T5, hCB1 mutant F237A^4.46 (Homo sapiens, UniProt P21554, F237A); experiment: pIRES G protein dissociation BRET assay, F237A mutant; conditions: 10 μM ligand alone
T5 construct: expressed in transfected cells; host or cells: HEK293
Protocol: as §1, §2, §3, §4, §5

[6] = molecular target: T6, hCB1 mutant K232A^4.41 (Homo sapiens, UniProt P21554, K232A); experiment: pIRES G protein dissociation BRET assay, K232A mutant; conditions: 10 μM ligand alone
T6 construct: expressed in transfected cells; host or cells: HEK293
Protocol: as §1, §2, §3, §4, §5

[7] = molecular target: T7, hCB1 mutant L209A^3.45 (Homo sapiens, UniProt P21554, L209A); experiment: pIRES G protein dissociation BRET assay, L209A mutant; conditions: 10 μM ligand alone
T7 construct: expressed in transfected cells; host or cells: HEK293
Protocol: as §1, §2, §3, §4
To assay, the culture medium was aspirated and cells were washed with phosphate buffered saline (PBS) and replaced with BRET assay medium (phenol red free DMEM containing 25 mM HEPES and supplemented with 1 mg/mL bovine serum albumin; BSA, MP Biomedicals, Auckland, New Zealand) for 30 min prior to drug addition (serum starve). Drugs were prepared at 10 × concentration in BRET assay medium, combined in a polypropylene V-bottom plate, and incubated at 37° C prior to drug stimulation. […]

[8] = molecular target: T8, hCB1 mutant F289A^5.53 (Homo sapiens, UniProt P21554, F289A); experiment: pIRES G protein dissociation BRET assay, F289A mutant; conditions: 10 μM ligand alone
T8 construct: expressed in transfected cells; host or cells: HEK293
Protocol: as §1, §2, §3, §4, §5

[9] = molecular target: T9, hCB1 mutant R220A^3.56 (Homo sapiens, UniProt P21554, R220A); experiment: pIRES G protein dissociation BRET assay, R220A mutant; conditions: 10 μM ligand alone
T9 construct: expressed in transfected cells; host or cells: HEK293
Protocol: as §1, §2, §3, §4, §5

[10] = molecular target: T10, hCB1 mutant F408A^8.54 (Homo sapiens, UniProt P21554, F408A); experiment: pIRES G protein dissociation BRET assay, F408A mutant; conditions: 10 μM ligand alone
T10 construct: expressed in transfected cells; host or cells: HEK293
Protocol: as §1, §2, §3, §4, §5

T3 sequence (P21554 whole entry F191A): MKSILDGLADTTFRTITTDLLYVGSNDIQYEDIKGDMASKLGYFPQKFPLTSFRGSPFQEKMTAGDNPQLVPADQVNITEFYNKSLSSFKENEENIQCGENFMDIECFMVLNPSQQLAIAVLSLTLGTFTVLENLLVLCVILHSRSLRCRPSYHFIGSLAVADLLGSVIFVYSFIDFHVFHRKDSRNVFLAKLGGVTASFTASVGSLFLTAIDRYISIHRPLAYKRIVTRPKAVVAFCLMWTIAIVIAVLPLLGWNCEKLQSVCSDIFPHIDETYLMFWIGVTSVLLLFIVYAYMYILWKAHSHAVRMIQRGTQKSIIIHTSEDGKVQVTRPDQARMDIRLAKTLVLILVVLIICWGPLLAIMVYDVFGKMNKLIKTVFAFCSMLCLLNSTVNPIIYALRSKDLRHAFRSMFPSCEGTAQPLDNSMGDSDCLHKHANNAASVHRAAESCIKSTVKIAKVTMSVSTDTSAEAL
T8 sequence (P21554 whole entry F289A): as the sequence (P21554 whole entry F191A) above, with A191F, F289A counted along it
T2 sequence (P21554 whole entry S173A): as the sequence (P21554 whole entry F191A) above, with S173A, A191F counted along it
T7 sequence (P21554 whole entry L209A): as the sequence (P21554 whole entry F191A) above, with A191F, L209A counted along it
T5 sequence (P21554 whole entry F237A): as the sequence (P21554 whole entry F191A) above, with A191F, F237A counted along it
T6 sequence (P21554 whole entry K232A): as the sequence (P21554 whole entry F191A) above, with A191F, K232A counted along it
T10 sequence (P21554 whole entry F408A): as the sequence (P21554 whole entry F191A) above, with A191F, F408A counted along it
T1 sequence (P21554 whole entry Y172A): as the sequence (P21554 whole entry F191A) above, with Y172A, A191F counted along it
T4 sequence (P21554 whole entry I245A): as the sequence (P21554 whole entry F191A) above, with A191F, I245A counted along it
T9 sequence (P21554 whole entry R220A): as the sequence (P21554 whole entry F191A) above, with A191F, R220A counted along it

In the case of `Cc1ccc2c(C(C[N+](=O)[O-])c3cccs3)c(-c3ccccc3)[nH]c2c1` (centres unmarked) [ZCZ011, 6-Methyl-3-(2-nitro-1-(thiophen-2-yl)ethyl)-2-phenyl-1 H-indole], the “G protein dissociation, AUC of 10 μM compound (maximal response)” value (“G protein dissociation, AUC” for short) [1] is reported as −142.1 ± 14.4, the “G protein dissociation, AUC” value [2] is reported as −144.2 ± 6.8 and the “G protein dissociation, AUC” value ([3]; 10 μM ligand alone) is reported as 35.0 ± 8.4. For the same compound, the “Allosteric agonism: G protein dissociation in the absence of an orthosteric ligand” value ([3]; 10 μM, result in words) was “abolished”, the “G protein dissociation, AUC” value [4] was −130.4 ± 12.9 and the “G protein dissociation, AUC” value [5] was −64.2 ± 4.1. The “G protein dissociation, AUC” value [6] was −140.0 ± 7.3, the “G protein dissociation, AUC” value [7] was −34.4 ± 2.9 and the “G protein dissociation, AUC” value [8] was −135.5 ± 6.3. For the same compound, the “G protein dissociation, AUC” value [9] was −95.7 ± 7.7 and the “G protein dissociation, AUC” value [10] was −116.9 ± 10.1.
